{"source": "ChEMBL document CHEMBL1140139", "about": "“A beta-fluoroamine inhibitor of purine nucleoside phosphorylase” (J Med Chem, 2008)", "key": {"[1]": {"target": "T1, Purine nucleoside phosphorylase (Plasmodium falciparum, UniProt Q8T9Z7)", "T1 sequence (Q8T9Z7 whole entry)": "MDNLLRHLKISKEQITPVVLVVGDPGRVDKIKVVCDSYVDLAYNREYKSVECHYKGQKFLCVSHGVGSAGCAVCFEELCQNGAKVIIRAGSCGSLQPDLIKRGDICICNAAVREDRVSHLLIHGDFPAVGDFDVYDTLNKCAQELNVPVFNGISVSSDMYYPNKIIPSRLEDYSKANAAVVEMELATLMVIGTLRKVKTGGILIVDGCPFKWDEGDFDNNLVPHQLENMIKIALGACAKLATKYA", "assay": "Inhibition of Plasmodium falciparum purine nucleoside phosphorylase assessed as slow onset inhibition constant by xanthine-oxidase coupled assay"}, "[2]": {"target": "T1, Purine nucleoside phosphorylase", "assay": "Inhibition of Plasmodium falciparum purine nucleoside phosphorylase by xanthine-oxidase coupled assay"}, "[3]": {"assay": "in vivo", "settings": "mouse, ip, 14 nmol", "description": "Half life in mouse at 14 nmol, ip administered as single dose"}, "[4]": {"assay": "in vivo", "settings": "mouse, po, 14 nmol", "description": "Half life in mouse at 14 nmol, po administered as single dose"}, "[5]": {"species": "Mus musculus", "assay": "animal or person", "settings": "Blood, po, read-out: INH", "description": "Inhibition of purine nucleoside phosphorylase in mouse blood at 0.2 mg/kg, po administered as single dose"}, "[6]": {"target": "T2, Purine nucleoside phosphorylase (Homo sapiens, UniProt P00491)", "T2 sequence (P00491 whole entry)": "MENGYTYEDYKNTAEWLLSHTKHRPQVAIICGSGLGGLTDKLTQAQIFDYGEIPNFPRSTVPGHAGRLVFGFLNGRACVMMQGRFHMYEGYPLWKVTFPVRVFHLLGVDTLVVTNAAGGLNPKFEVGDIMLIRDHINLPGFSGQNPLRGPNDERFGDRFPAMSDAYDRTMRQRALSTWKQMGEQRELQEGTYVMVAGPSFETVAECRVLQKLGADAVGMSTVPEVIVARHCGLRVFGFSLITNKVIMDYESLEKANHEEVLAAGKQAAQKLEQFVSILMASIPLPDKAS", "assay": "Inhibition of human purine nucleoside phosphorylase by xanthine-oxidase coupled assay"}, "[7]": {"target": "T2, Purine nucleoside phosphorylase", "assay": "Inhibition of human purine nucleoside phosphorylase assessed as slow onset inhibition constant by xanthine-oxidase coupled assay"}}}
{"molecule": "O=c1[nH]cnc2c(CN3C[C@H](O)[C@@](F)(CO)C3)c[nH]c12", "note": "(racemic)", "values": [{"measurement": "Ki", "setting": "[1]", "value": 23.3, "unit": "nM"}, {"measurement": "Ki", "setting": "[2]", "value": 3.6, "unit": "nM"}]}
{"molecule": "O=c1[nH]cnc2c(CN3C[C@H](O)[C@@](F)(CO)C3)c[nH]c12", "values": [{"measurement": "Ki", "setting": "[1]", "value": 19, "unit": "nM"}, {"measurement": "Ki", "setting": "[2]", "value": 2.63, "unit": "nM"}, {"measurement": "half-life", "setting": "[3]", "value": "< 0.25", "unit": "h"}, {"measurement": "half-life", "setting": "[4]", "value": 20, "unit": "h"}, {"measurement": "inhibition in vivo at 0.2 mg/kg", "setting": "[5]", "value": 80, "unit": "%"}, {"measurement": "Ki", "setting": "[6]", "value": 0.33, "unit": "nM"}, {"measurement": "Ki*", "setting": "[7]", "value": 0.032, "unit": "nM"}]}
{"molecule": "O=c1[nH]cnc2c(CN3C[C@@H](CO)[C@H](O)C3)c[nH]c12", "values": [{"measurement": "Ki", "setting": "[1]", "value": 1700, "unit": "nM"}, {"measurement": "Ki", "setting": "[2]", "value": 80, "unit": "nM"}, {"measurement": "Ki", "setting": "[6]", "value": 0.38, "unit": "nM"}]}
{"molecule": "O=c1[nH]cnc2c(CN3C[C@@H](O)[C@](F)(CO)C3)c[nH]c12", "values": [{"measurement": "Ki", "setting": "[1]", "value": 2070, "unit": "nM"}, {"measurement": "Ki", "setting": "[2]", "value": 260, "unit": "nM"}, {"measurement": "Ki", "setting": "[6]", "value": 18, "unit": "nM"}, {"measurement": "Ki*", "setting": "[7]", "value": 1.82, "unit": "nM"}]}
